Patent US20080268073A1, “CERAMIDASE INHIBITOR” (TAKARA BIO INC., priority 2003, published 2008)

Tested on: neutral/alkaline RatBrain Ceramidase
Assay: Inhibitory activity on neutral/alkaline RatBrain Ceramidase (Reference Example 1, NBD-C12-Ceramide, HPLC)
Format: biochemical, rat
Details: concentration of 5 μM; NBD-C12-Ceramide 0.02 mM
Protocol: As neutral/alkaline ceramidase, two kinds of ceramidase derived from Pseudomonas aeruginosa strain AN17 and ceramidase derived from a rat brain were used.
On the other hand, a crude enzyme solution of rat brain-derived ceramidase was prepared in the following manner. First, two pieces (3.5 g) of rat brain tissues were homogenized in 30 mL of 0.25 M sucrose solution with a Potter-Elvehjem homogenizer. The resulting homogenate was centrifuged at 700×g for 10 minutes, then the supernatant was centrifuged at 25,000×g for 10 minutes, and the resulting supernatant was further centrifuged at 100,000×g for 60 minutes to give precipitates which were then suspended in 3 mL of 25 mM Tris-HCl buffer (pH 8.0). Nine milliliters of 25 mM Tris-HCl buffer (pH 8.0) comprising 0.5% Triton X-100 was added to the resulting suspension which was then subjected to extraction by leaving the suspension on ice for 2 hours. […]
The inhibitory activity on the neutral/alkaline RatBrain Ceramidase was determined in the following manner. […] The reaction was terminated by adding 75 microliters of methanol, and 50 microliters of aliquot of the reaction solution was analyzed by HPLC.
HPLC analysis was carried out in the following manner. […] Detection was carried out with a fluorescence detector at an excitation light of 465 nm and a fluorescent light of 535 nm. […]

- inhibition of the activity of neutral/alkaline ceramidase derived from a rat brain: 50%
SMILES: CCCC/C=C/CCCC(O)C(CCCCCCCCCCCCCCCC/C=C/CC(=O)O)C(CO)C(C)O (single isomer, unassigned) [purified substance]
